Reference: the NIST ThermoML archive (doi:10.1021/je500502a)

Columns and labels:
[1] = 101.33 kPa, Liquid; for electrical conductivity: PICO digital conductivity meter; for speed of sound: Sing-around technique in a fixed-path interferometer; for mass density: Vibrating tube method
[2] = refractive index (Na D-line) (dimensionless); settings: 101.33 kPa, Liquid, Standard Abbe refractometry

CCn1cc[n+](C)c1.O=S(=O)([N-]S(=O)(=O)C(F)(F)F)C(F)(F)F
Settings	electrical conductivity, [1] [S/m]	mass density, [1] [kg/m3]	refractive index, [2]	speed of sound, [1] [m/s]
293.15 K	0.854	1521.47	1.42425	1251.2
298.15 K	0.947	1516.39	1.42286	1240.3
303.15 K	1.07	1511.32	1.42142	1229.4
308.15 K	1.19	1506.27	1.41997	1218.5
313.15 K	1.33	1501.23	1.4185	1207.8
318.15 K	1.48	1496.21	1.41705	1197.2
323.15 K	1.64	1491.21	1.41555	1186.7
